This is an account of results in PMC9227013, “Synthesis, Anticancer Potential and Comprehensive Toxicity Studies of Novel Brominated Derivatives of Bacterial Biopigment Prodigiosin from Serratia marcescens ATCC 27117” (Molecules, 2022).

One series has as its system Breast cancer MDA-MB-231. Conditions: cited from earlier work.
Series [1] has as its system juvenile Meloidogyne incognita J2. Details: method as in doi:10.3390/agronomy12010041. Conditions: cited from earlier work.
For another series, the system named is Heterodera schachtii J2. Conditions: cited from earlier work.
In series [2] the test system is 60-cell-line panel of the National Cancer Institute (NCI). Conditions: NCI 60-cell-line panel; cited from earlier work.
The test system of another series is A549. Conditions: cited from earlier work.
Another series relates to MRC-5 (lung fibroblasts). As to the kind of experiment: MTT antiproliferative assay on MRC-5 cells. The format is cell-based. Conditions: for IC50: Homo sapiens. The procedure: (§1) Selected cell lines MRC-5 (lung fibroblasts), A549 (lung cancer), A375 (melanoma, skin cancer), MDA-MB-231 (breast cancer), and HCT116 (colon cancer) were obtained from ATCC, Manassas, US. Antiproliferative activities of PG and its Br derivatives were measured using the standard colorimetric MTT [3-(4,5-dimethylthiazol-2-yl)-2,5-diphenyltetrazolium bromide] assay. Briefly, cells were plated in a 96-well flat-bottom plate (Sarstedt, Nümbrecht, Germany) at a concentration of 1 × 10^4 cells per well, grown in a humidified atmosphere of 95% air and 5% CO2 at 37 °C, and maintained as monolayer cultures in RPMI 1640 medium supplemented with 10% fetal bovine serum (FBS), 100 U/mL penicillin, and 100 μg/mL streptomycin (all media components from Gibco™ by Thermo Fischer Scientific CE). Each tested compound was added to the cells at a concentration of 0.05–100.00 μg/mL, and the treatment lasted for 48 h. The MTT assay was performed two times in four replicates, and the results were presented as a percentage of the DMSO-treated control that was arbitrarily set to 100%. Plates were read using the Tecan Infinite 200 Pro multiplate reader (Tecan Group Ltd., Männendorf, Switzerland).
(§2) To assess the effect of the treatment duration, exposure of MRC-5 and HCT116 cells to PG and its Br derivatives was observed after 24 h, 48 h, and 72 h and measured using the MTT assay, as described above. MRC-5 and HCT-116 cells treated for 24 h were additionally analyzed using DM IL LED Inverted Microscope (Leica Microsystems, Mannheim, Germany) at 20× magnification.

Series [3] has as its system HFF (human foreskin fibroblasts) cells. More on the design: method as in PMID 24247721. Conditions: cited from earlier work.
Series [4] has as its system juveniles of Radopholus similis. Conditions: cited from earlier work.
For another series, the system named is HCT116 (colon cancer). As to the kind of experiment: MTT antiproliferative assay on HCT116 cells. The format is cell-based. Conditions: for IC50: Homo sapiens. The procedure:
as §1, §2
In general terms: Tetrazolium dyes change colour on reduction, which living cells bring about.

Series [5] relates to MDA-MB-231 (breast cancer). The series can be described thus: MTT antiproliferative assay on MDA-MB-231 cells. Conditions: for IC50: Homo sapiens. The format is cell-based. The procedure:
as §1

For a further series, the system named is Meloidogyne javanica. Conditions: cited from earlier work.
Another series has as its system C. elegans. Conditions: PG obtained from S. marcescens; cited from earlier work.
The test system of another series is melanoma cell line A375. Details: method as in PMID 16736886. Conditions: cited from earlier work.
Another series concerns HCT116 colon cancer. Details: method as in PMID 24247721. Conditions: HCT116, 72 h treatment; cited from earlier work.
Series [6] deals with C. elegans first stage juveniles. Conditions: cited from earlier work.
Another series relates to A549 (lung cancer). As to the kind of experiment: MTT antiproliferative assay on A549 cells. The format is cell-based. Conditions: Homo sapiens. As for the experimental part:
as §1

Converted amounts (≈) assume the structure as drawn. Where two headings read alike, the source gives them in different places.

One may read the IC50 as the concentration needed to halve the response being measured. Broadly, the LC50 is the concentration lethal to half of the exposed cells or organisms. The term EC50 denotes the concentration at which the effect is half-maximal. Take `CCCCCC1=CC(=Cc2[nH]c(-c3ccc[nH]3)cc2OC)N=C1C` [PG, 4-Methoxy-5-[(5-methyl-4-pentyl-2H-pyrrol-2-ylidene)methyl]-1H,1'H-2,2'-bipyrrole]: the “sensitivity of MDA-MB-231 to PG (lower end of literature range)” value in the series with Breast cancer MDA-MB-231 is reported as 0.02 µg/mL. Further, in the series on Breast cancer MDA-MB-231, the “sensitivity of MDA-MB-231 to PG (upper end of literature range)” value is recorded as 0.68 µg/mL. For the same molecule, the IC50 in [1] is 0.2 mg/mL (≈ 618 µM); in the series with MRC-5 (lung fibroblasts) (MRC5, 24 h) it was 1.8 ± 0.04 µg/mL (≈ 5.57 µM); in the series on MRC-5 (lung fibroblasts) (MRC5, 48 h), 1.2 ± 0.04 µg/mL (≈ 3.71 µM); in the series on MRC-5 (lung fibroblasts) (MRC5, 72 h) it was 0.7 ± 0.02 µg/mL (≈ 2.16 µM); in series [3] (72 h of treatment), 0.15 µg/mL (≈ 0.464 µM); in the series on HCT116 (colon cancer) (HCT-116, 24 h), 5 ± 0.06 µg/mL (≈ 15.5 µM). The IC50 in the series with HCT116 (colon cancer) (HCT-116, 48 h) was 0.7 ± 0.02 µg/mL (≈ 2.16 µM); with HCT116 (colon cancer) (HCT-116, 72 h), 0.8 ± 0.02 µg/mL (≈ 2.47 µM); in series [5] (MDA-MB-231, 48 h), 0.62 ± 0.01 µg/mL (≈ 1.92 µM); in the series on HCT116 colon cancer it was 0.04 µg/mL (≈ 0.124 µM); in the series on A549 (lung cancer) (A549, 48 h), 1.3 ± 0.02 µg/mL (≈ 4.02 µM). Also, the Effectiveness with Heterodera schachtii J2 is recorded as 4.30 µg/mL. Besides, in series [2], the “average LC50” value is reported as 0.68 µg/mL. In addition, the “anticancer activity against A549 (lower end of literature range)” value in the series on A549 is listed as 0.03 µg/mL. For the same molecule, the “anticancer activity against A549 (upper end of literature range)” value with A549 was 3.23 µg/mL. The “fold lower IC50 of 72 h in comparison to 24 h exposure” value with MRC-5 (lung fibroblasts) (MRC-5) stood at 2.5 fold. For the same molecule, the growth inhibition in series [3] (0.36 µg/mL PG) was 76.16%. Also, the LC50 in series [4] was 83 µg/mL (≈ 257 µM); with Meloidogyne javanica, 79 µg/mL (≈ 244 µM). Moreover, the “selectivity between healthy and cancer cell lines” value was determined as 1.7 in the series on HCT116 (colon cancer) (MRC-5 vs colon cancer cells (HCT116), 48 h) and 1.9 in series [5] (MRC-5 vs breast cancer cells (MDA-MB-231), 48 h). Besides, the toxicological assessment entry with C. elegans is reported as “no significant toxic activity”. The “sensitivity of A375 to PG” value in the series on melanoma cell line A375 is given as 0.70 µg/mL. Further, the EC50 in [6] is on record as 0.04 µg/mL (≈ 0.124 µM).
Regarding `CCCCCC1=C(Br)/C(=C/c2[nH]c(-c3[nH]ccc3Br)cc2OC)N=C1C` [PG-Br2], the IC50 in the series with MRC-5 (lung fibroblasts) (MRC5, MRC-5, 48 h treatment, read-out: IC50) stood at 10 ± 0.09 µg/mL (≈ 20.8 µM); in the series with MRC-5 (lung fibroblasts) (MRC5, MRC-5, exposure time 24 h, read-out: IC50), 15 ± 0.05 µg/mL (≈ 31.2 µM); with MRC-5 (lung fibroblasts) (MRC5, MRC-5, exposure time 72 h, read-out: IC50), 10 ± 0.08 µg/mL (≈ 20.8 µM); with HCT116 (colon cancer) (HCT-116, HCT116, 48 h treatment, read-out: IC50), 10 ± 0.08 µg/mL (≈ 20.8 µM); with HCT116 (colon cancer) (HCT-116, HCT116, exposure time 24 h, read-out: IC50) it was 50 ± 0.09 µg/mL (≈ 104 µM); in the series with HCT116 (colon cancer) (HCT-116, HCT116, exposure time 72 h, read-out: IC50), 10 ± 0.05 µg/mL (≈ 20.8 µM). For the same molecule, the IC50 in [5] (MDA-MB-231, 48 h treatment, read-out: IC50) was 17 ± 0.05 µg/mL (≈ 35.3 µM); with A549 (lung cancer) (A549, 48 h treatment, read-out: IC50), 16 ± 0.08 µg/mL (≈ 33.2 µM).
